Laboratory results: patent US20020137929A1, “1 - (3-heterocyclylphenyl) isothiourea, -isourea, -guanidine and -amidine herbicidal agents” (Intellectual Property Department, BASF Aktiengesellschaft, priority 1998, published 2002)

What was measured:
[1] = tested on: IPOHE (Morningglory, Ivyleaf); assay: Postemergence herbicidal evaluation; assay type: in vivo, Ipomoea hederacea
How it was run: (§1)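 Visual 0-9 injury score (stand, vigor, malformation, size, chlorosis, appearance vs untreated) taken four to five weeks post-spray, averaged across repeat tests. Test plants about two weeks old; foliar spray of acetone/water (1:1) with 0.5% surfactant delivering ~0.0156-0.500 kg active/ha.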

MOOVA (Monochoria) = assay: Postemergence weed control under flooded paddy conditions; assay type: in vivo, Monochoria vaginalis; settings: postemergence weeds, 3-4 weeks after treatment
How it was run: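 Weeds 3 to 5 cm tall and rice seedlings at the 1.5 to 2.5 leaf stage were flooded, with water held 1.5 to 3 cm above the soil. Compounds in 50/50 v/v aqueous/acetone went into the flood water at about 0.0313 to 0.500 kg/ha. Visual 0-9 ratings versus control were made 3 to 4 weeks later.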

ECHCG (Barnyardgrass) = assay: Preemergence herbicidal evaluation; assay type: in vivo, Echinochloa crus-galli; settings: rated 4-5 weeks after treatment
How it was run: (§2)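 Greenhouse preemergence test: seed-soil mix sown on ~1 inch soil; aqueous acetone spray at equivalent of ~0.0156–0.500 kg/ha; greenhouse-held and watered; scored 0–9 visually at 4–5 weeks.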

ORYSAT (Rice, Tebonnet) [2] = assay: Rice tolerance to post-transplant applications, flooded paddy conditions (Table III); assay type: in vivo, Oryza sativa, (L.) Tebonnet
How it was run: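 Two ten-day-old Tebonnet seedlings transplanted into flooded silt loam (water 1.5 to 3 cm above soil); three days later the water surface was treated with compound in aqueous/acetone 50/50 at about 0.0313 to 0.500 kg/ha. Visual 0-9 injury rating versus control after three to four weeks in greenhouse.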

[3] = tested on: CHEAL (Lambsquarters, Common); assay: Postemergence herbicidal evaluation; assay type: in vivo, Chenopodium album
How it was run: as §1

GALAP (Galium) = assay: Preemergence herbicidal evaluation; assay type: in vivo, Galium aparine; settings: rated 4-5 weeks after treatment
How it was run: as §2

[4] = tested on: GLXMAW (Soybean, Williams); assay: Preemergence herbicidal evaluation; assay type: in vivo, Glycine max, (L.) Merr. cv Williams; settings: rated 4-5 weeks after treatment
How it was run: as §2

ORYSAT (Rice, Tebonnet) [5] = assay: Rice tolerance to post-transplant applications, flooded paddy conditions (Table IV); assay type: in vivo, Oryza sativa, (L.) Tebonnet
How it was run: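 Containers holding 3–5 cm weeds and rice at 1.5–2.5 leaves are flooded to 1.5–3 cm above soil. Compound in 50/50 v/v aqueous/acetone is then added directly to the water, about 0.0313–0.500 kg/ha. Plants are kept in the greenhouse and rated 0–9 visually at 3–4 weeks.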

Cn1c(C(F)(F)F)cc(=O)n(-c2cc(N=C3SCC(=O)N3CCC(=O)O)c(Cl)cc2F)c1=O [Compound 31, 2-{{2-Chloro-5-[3,6-dihydro-3-methyl-2,6-dioxo-4-(trifluoromethyl)-1(2H)-pyrimidinyl]-4-fluoro-phenyl}imino}-4-oxo-3-thiazolidinepropionic acid]
Postemergence herbicidal rating IPOHE ([1]; Rate 0.0158 kg/ha): 9.0
Postemergence herbicidal rating IPOHE ([1]; Rate 0.0315 kg/ha): 9.0
Postemergence herbicidal rating IPOHE ([1]; Rate 0.0630 kg/ha): 9.0
Herbicidal rating MOOVA (MOOVA (Monochoria); rate 0.0625 kg/ha): 0.0
Herbicidal rating MOOVA (MOOVA (Monochoria); rate 0.1250 kg/ha): 0.0
Herbicidal rating MOOVA (MOOVA (Monochoria); rate 0.2500 kg/ha): 2.5
Preemergence herbicidal rating ECHCG (ECHCG (Barnyardgrass); rate 0.0625 kg/ha): 0.0
Preemergence herbicidal rating ECHCG (ECHCG (Barnyardgrass); rate 0.1250 kg/ha): 9.0
Preemergence herbicidal rating ECHCG (ECHCG (Barnyardgrass); rate 0.2500 kg/ha): 9.0
Herbicidal rating ORYSAT (rice tolerance) (ORYSAT (Rice, Tebonnet) [2]; in vivo): 0.0
Postemergence herbicidal rating CHEAL ([3]; Rate 0.0158 kg/ha): 0.0
Postemergence herbicidal rating CHEAL ([3]; Rate 0.0315 kg/ha): 2.0
Postemergence herbicidal rating CHEAL ([3]; Rate 0.0630 kg/ha): 7.0
Preemergence herbicidal rating GALAP (GALAP (Galium); rate 0.0625 kg/ha): 0.0
Preemergence herbicidal rating GALAP (GALAP (Galium); rate 0.2500 kg/ha): 6.0
Preemergence herbicidal rating GLXMAW ([4]; rate 0.0625 kg/ha): 3.0
Preemergence herbicidal rating GLXMAW ([4]; rate 0.1250 kg/ha): 5.0
Preemergence herbicidal rating GLXMAW ([4]; rate 0.2500 kg/ha): 6.0
Herbicidal rating ORYSAT (rice tolerance) (ORYSAT (Rice, Tebonnet) [5]; in vivo): 0.0

CCOC(=O)COc1ccccc1CC1S/C(=N/c2cc(-n3c(=O)cc(C(F)(F)F)n(C)c3=O)c(F)cc2Cl)N(CC(=O)OCC)C1=O (stereo not shown) [Compound 42, 2-{{2-Chloro-5-[3,6-dihydro-3-methyl-2,6-dioxo-4-(trifluoromethyl)-1(2H)-pyrimidinyl]-4-fluoro-phenyl}imino}-5-(o-hydroxybenzyl)-4-oxo-3-thiazolidineacetic acid, ethyl ester, ester with ethyl glycolate]
Postemergence herbicidal rating IPOHE ([1]; Rate 0.0158 kg/ha): 9.0
Postemergence herbicidal rating IPOHE ([1]; Rate 0.0315 kg/ha): 9.0
Postemergence herbicidal rating IPOHE ([1]; Rate 0.0630 kg/ha): 9.0
Herbicidal rating MOOVA (MOOVA (Monochoria); rate 0.0313 kg/ha): 7.0
Herbicidal rating MOOVA (MOOVA (Monochoria); rate 0.0625 kg/ha): 9.0
Herbicidal rating MOOVA (MOOVA (Monochoria); rate 0.1250 kg/ha): 9.0
Herbicidal rating MOOVA (MOOVA (Monochoria); rate 0.2500 kg/ha): 9.0
Preemergence herbicidal rating ECHCG (ECHCG (Barnyardgrass); rate 0.0313 kg/ha): 0.0
Preemergence herbicidal rating ECHCG (ECHCG (Barnyardgrass); rate 0.0625 kg/ha): 0.0
Preemergence herbicidal rating ECHCG (ECHCG (Barnyardgrass); rate 0.1250 kg/ha): 0.0
Preemergence herbicidal rating ECHCG (ECHCG (Barnyardgrass); rate 0.2500 kg/ha): 0.0
Herbicidal rating ORYSAT (rice tolerance) (ORYSAT (Rice, Tebonnet) [2]; 0.0313 kg/ha, post-transplant rice, flooded paddy, rated 3-4 weeks after treatment): 0.0
Herbicidal rating ORYSAT (rice tolerance) (ORYSAT (Rice, Tebonnet) [2]; 0.0625 kg/ha, post-transplant rice, flooded paddy, rated 3-4 weeks after treatment): 0.0
Herbicidal rating ORYSAT (rice tolerance) (ORYSAT (Rice, Tebonnet) [2]; 0.1250 kg/ha, post-transplant rice, flooded paddy, rated 3-4 weeks after treatment): 0.0
Herbicidal rating ORYSAT (rice tolerance) (ORYSAT (Rice, Tebonnet) [2]; 0.2500 kg/ha, post-transplant rice, flooded paddy, rated 3-4 weeks after treatment): 0.0
Postemergence herbicidal rating CHEAL ([3]; Rate 0.0158 kg/ha): 3.0
Postemergence herbicidal rating CHEAL ([3]; Rate 0.0315 kg/ha): 9.0
Postemergence herbicidal rating CHEAL ([3]; Rate 0.0630 kg/ha): 6.0
Preemergence herbicidal rating GALAP (GALAP (Galium); rate 0.0313 kg/ha): 0.0
Preemergence herbicidal rating GALAP (GALAP (Galium); rate 0.0625 kg/ha): 0.0
Preemergence herbicidal rating GALAP (GALAP (Galium); rate 0.1250 kg/ha): 0.0
Preemergence herbicidal rating GALAP (GALAP (Galium); rate 0.2500 kg/ha): 0.0
Preemergence herbicidal rating GLXMAW ([4]; rate 0.0313 kg/ha): 0.0
Preemergence herbicidal rating GLXMAW ([4]; rate 0.0625 kg/ha): 0.0
Preemergence herbicidal rating GLXMAW ([4]; rate 0.1250 kg/ha): 1.0
Preemergence herbicidal rating GLXMAW ([4]; rate 0.2500 kg/ha): 1.0
Herbicidal rating ORYSAT (rice tolerance) (ORYSAT (Rice, Tebonnet) [5]; rate 0.0313 kg/ha, flooded paddy, post-transplant rice, 3-4 weeks after treatment): 0.0
Herbicidal rating ORYSAT (rice tolerance) (ORYSAT (Rice, Tebonnet) [5]; rate 0.0625 kg/ha, flooded paddy, post-transplant rice, 3-4 weeks after treatment): 0.0
Herbicidal rating ORYSAT (rice tolerance) (ORYSAT (Rice, Tebonnet) [5]; rate 0.1250 kg/ha, flooded paddy, post-transplant rice, 3-4 weeks after treatment): 0.0
Herbicidal rating ORYSAT (rice tolerance) (ORYSAT (Rice, Tebonnet) [5]; rate 0.2500 kg/ha, flooded paddy, post-transplant rice, 3-4 weeks after treatment): 0.0
